Measurements reported in PMC10123100, “Single-molecule visualization of stalled replication-fork rescue by the Escherichia coli Rep helicase” (Nucleic Acids Research, 2023).

Columns and labels:
[1] = biological target: T1, Rep helicase (His6-Rep WT) (Escherichia coli, UniProt P09980); test: SPR, nucleotide-stimulated dissociation of Rep from immobilised dT35; format: binding; details: 200 uM ATP, 20 nM Rep, biotinylated dT35, Mg2+, pH 7.6, 20 C
T1 construct: full-length with His6 tag kept, plasmid pZX2198, expressed in E. coli BL21(DE3)/pLysS; monomer, multimer on long ssDNA

[2] = biological target: T1, Rep helicase (His6-Rep WT); test: as above; format: binding; details: 200 uM ATP, 20 nM Rep, biotinylated dT35, Mg2+, pH 7.6, 20 C; remark: listed apart in the source

T1 sequence (P09980 whole entry): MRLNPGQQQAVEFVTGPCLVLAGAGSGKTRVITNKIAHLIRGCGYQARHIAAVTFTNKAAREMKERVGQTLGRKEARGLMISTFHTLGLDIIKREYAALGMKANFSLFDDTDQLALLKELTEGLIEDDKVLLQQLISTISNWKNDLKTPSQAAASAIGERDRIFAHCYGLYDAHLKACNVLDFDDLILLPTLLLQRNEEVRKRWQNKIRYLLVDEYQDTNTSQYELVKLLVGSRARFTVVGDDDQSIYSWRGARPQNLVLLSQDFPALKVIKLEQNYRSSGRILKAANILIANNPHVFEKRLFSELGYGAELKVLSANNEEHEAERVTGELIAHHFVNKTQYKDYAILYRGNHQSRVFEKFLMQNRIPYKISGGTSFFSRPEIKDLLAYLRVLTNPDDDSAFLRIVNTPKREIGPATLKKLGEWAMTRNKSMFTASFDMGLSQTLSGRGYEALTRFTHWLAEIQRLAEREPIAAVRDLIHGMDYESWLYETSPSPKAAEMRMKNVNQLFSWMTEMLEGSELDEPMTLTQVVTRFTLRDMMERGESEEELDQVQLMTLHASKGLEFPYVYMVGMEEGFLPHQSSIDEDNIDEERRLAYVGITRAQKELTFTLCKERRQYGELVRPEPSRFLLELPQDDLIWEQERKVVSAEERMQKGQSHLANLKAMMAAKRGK

## Nc1ncnc2c1ncn2[C@@H]1O[C@H](COP(=O)(O)OP(=O)(O)OP(=O)(O)O)[C@@H](O)[C@H]1O [ATP]
[1]
  SPR, nucleotide-stimulated dissociation of Rep from immobilised dT35: ATP, but not ADP or AMP-PNP, stimulated the dissociation of Rep WT and Rep ΔC33
[2]
  SPR, nucleotide-stimulated dissociation of Rep from immobilised dT35: ATP, but not ADP or AMP-PNP, stimulated the dissociation of Rep WT and Rep ΔC33
